From US6893650B1, “N2-phenylamidine derivatives” (Bayer Cropscience GmbH, priority 1999, dated 2005)

Each compound was assayed on Leptosphaeria nodorum (assay: glume blotch, spray or stem-base drench of test plants, infection visually estimated). Settings: concentration of 500 ppm (w/v) or less.
Format: in vivo
Also: key: 1 is little or no control; 2 is moderate control; 3 is good to total control.

Compound	score of 1 to 3 (control, degree of infection visually estimated)
Cc1cc(Oc2nc(-c3ccc(Cl)c(Cl)c3)cs2)c(C)cc1N=CN(C)C [Compound 351]	2
CCN(C)C=Nc1cc(C)c(Oc2cccc(Oc3ccccc3)c2)cc1C [Compound 325]	2
Cc1cc(Oc2cccc(C#N)c2)c(C)cc1N=CN(C)C [Compound 29]	2
CCc1ccc(Oc2cc(C)c(N=CN(C)C)cc2C)cc1 [Compound 181]	2
Cc1cc(Oc2cccc(C(F)(F)F)c2)c(C)cc1N=CN1CCCC1 [Compound 41]	2
C#CCOc1ccc(Oc2cc(C)c(N=CN(C)C)cc2C)cc1 [Compound 235]	2
COc1ccccc1Oc1cc(C)c(N=CN(C)C)cc1C [Compound 27]	2
Cc1cc(C(C#N)c2cccc(C(F)(F)F)c2)c(C)cc1N=CN(C)C (stereo not drawn) [Compound 214]	2
Cc1cc(OCc2ccc(OCC3CCCCC3)cc2)c(C)cc1N=CN(C)C [Compound 290]	2
Cc1cc(Oc2cccc(Cl)c2)c(C)cc1N=CN(C)C [Compound 7]	2
Cc1cc(Oc2cccc(C(C)(C)C)c2)c(C)cc1N=CN(C)C(C)C [Compound 283]	2
CCN(C)C=Nc1cc(C)c(Oc2cccc(OC)c2)cc1C [Compound 312]	2
Cc1cc(Oc2nc(-c3ccccc3)ns2)c(C(C)C)cc1N=CN(C)C [Compound 208]	2
Cc1cc(C)nc(Oc2cccc(Oc3cc(C)c(N=CN(C)C)cc3C)c2)n1 [Compound 369]	2
CCN(C)C=Nc1cc(C)c(Oc2cccc(Cl)c2)cc1C [Compound 310]	2
Cc1cc(Oc2cccc(C(F)(F)F)c2)c(C)cc1N=CN(C)C [Compound 1]	2
CC(=Nc1cc(C)c(Oc2cccc(C(F)(F)F)c2)cc1C)N(C)C [Compound 2]	2
CCN(C)C=Nc1cc(C)c(Oc2cccc(C(F)(F)F)c2)cc1C [Compound 45, N-Ethyl-N-methyl-N′-[4-(3-trifluoromethylphenoxy)-2,5-xylyl]formamidine]	2
CCN(C)C=Nc1cc(C)c(Oc2cccc(C(C)(C)C)c2)cc1C [Compound 100]	2
Cc1cc(Oc2ccc(C(C)(C)C)cc2)c(C)cc1N=CN(C)C [Compound 61]	2
Cc1cc(Oc2nc3cc(C(F)(F)F)ccc3s2)c(C)cc1N=CN(C)C [Compound 194]	2

Compound	score of 1 to 3 (control, degree of infection visually estimated)
C=CCN(C)C=Nc1cc(C)c(Oc2cccc(C(C)(C)C)c2)cc1C [Compound 284]	2
CCNC=Nc1cc(C)c(Oc2cccc(C(F)(F)F)c2)cc1C [Compound 59]	2
CCN(C)C=Nc1cc(C)c(Oc2ccc(C(C)C)cc2)cc1C [Compound 311]	2
COc1cc(N=CN(C)C)c(Br)cc1Oc1cccc(C(F)(F)F)c1 [Compound 15]	2
COc1cccc(Oc2cc(C)c(N=CN(C)C)cc2C)c1 [Compound 56]	2
CCN(C)C=Nc1cc(C)c(Oc2ccc(Cl)c(C(F)(F)F)c2)cc1C [Compound 364]	2
CCC(C)(C)c1ccc(Oc2cc(C)c(N=CN(C)C)cc2C)cc1 [Compound 170]	2
CCC(C)c1ccc(Oc2cc(C)c(N=CN(C)C)cc2C)cc1 (stereo not drawn) [Compound 130]	2
Cc1cc(Oc2cccc(C(F)(F)F)c2)c(C)cc1N=CN1CCCCC1 [Compound 43]	2
Cc1cc(Oc2cccc(C3CCCC3)c2)c(C)cc1N=CN(C)C [Compound 378]	2
CC(=Nc1cc(C)c(SCc2cccc(C(F)(F)F)c2)cc1C)N(C)C [Compound 5]	2
CCN(C=Nc1cc(C)c(Oc2cccc(C(F)(F)F)c2)cc1C)CC [Compound 37, N,N-Diethyl-N′-[4-(3-trifluoromethylphenoxy)-2,5-xylyl]formamidine]	2
Cc1cc(Oc2cccc(C(C)(C)C)c2)c(C)cc1N=CN(C)C [Compound 8]	2
Cc1cc(OC(=O)c2sc3ccccc3c2Cl)c(C)cc1N=CN(C)C [Compound 160]	2
Cc1cc(Oc2nc(-c3ccccc3)ns2)c(C)cc1N=CN1CCCCC1 [Compound 246]	2
COC(C)(C)c1cccc(Oc2cc(C)c(N=CN(C)C)cc2C)c1 [Compound 392]	2
CCN(C)C=Nc1cc(C)c(Oc2ccc(C(C)(C)C)cc2)cc1C [Compound 326]	2
Cc1cc(Oc2ccc(OC(C)C)cc2)c(C)cc1N=CN(C)C [Compound 303]	2
Cc1cc(Oc2cccc(C(F)(F)F)c2)c(C)cc1N=CN1CCOCC1 [Compound 35]	2
Cc1cc(Oc2nc(Br)ns2)c(C)cc1N=CN(C)C [Compound 72]	2
Cc1cc(Oc2nc(-c3ccccc3)ns2)c(C)cc1N=CN(C)C [Compound 48, N,N-Dimethyl-N′-[4-(3-phenyl-1,2,4-thiadiazol-5-yloxy)-2,5-xylyl]formamidine]	2
